This passage reports Ki results from patent US11447484B2, “Cyclic compound having dopamine D3 receptor antagonistic effect” (Shionogi & Co., Ltd., priority 2018, dated 2022).

Where only a bound is given, the exact number is not on record here.

For experiment [1], the target named is human recombinant D3 receptor (Homo sapiens (Human), UniProt P35462). The experiment in a line: Test of binding inhibition for dopamine D3 receptor. Particulars: Jump-In HEK cell membranes, 2 nM [3H]-Methylspiperone, 120 min at 25° C.; read-out: hD3_Ki. How it is done: Test Example 1: Test of Binding Inhibition for Dopamine D3 Receptor
(§1) (Experimental Conditions)
Cell membranes: Jump-In HEK cell membranes expressing human recombinant D3 receptor (4 μg/well)
(§2) Buffer solution: 50 mM Tris-HCl (35409-45, Nacalai Tesque) (pH 7.4) containing 120 mM NaCl (31320-05, Nacalai Tesque), 1 mM MgCl2.6H2O (20909-55, Nacalai Tesque), 5 mM KCl (28514-75, Nacalai Tesque) and 2 mM CaCl2 (067-31, NAKARAI CHEMICALS, LTD.)
Radioligand: (final concentration) 2 nM [^3H]-Methylspiperone ([^3H—N-methyl-]-Methylspiperone, NET-856, 83.8 Ci/mmol, PerkinElmer)
Non-specific ligand: (final concentration) 10 μM Butaclamol [(+)-Butaclamol Hydrochloride, D033, Sigma]
(§3) SPA beads solution: SPA beads [WGA PVT SPA Scintillation Beads, RPNQ0001 (500 mg), RPNQ0060 (2 g), PerkinElmer] (0.2 mg/well)
(§4) Incubation time and temperature: 120 min at 25° C.
(§5) Butaclamol or the compounds of the present invention were weighed and DMSO was added to make a 10 mM solution. This solution was diluted to each concentration.
[^3H]-Methylspiperone was weighed and the buffer solution was added to make a 6 nM solution.
(§6) SPA beads were weighed and stirred in water to make a 50 mg/mL solution. Using this solution, a mixture with the cell membranes was prepared.
(§7) 225 nL of the solutions of the non-specific ligand or the compounds of the present invention at each concentration (in case of vehicle, final concentration 0.3% DMSO) were added in each well of a 384-well white/clear bottom microplate (3706, Corning). Jump-In HEK Cell membranes (final reaction amount: 4 μg protein/well), the SPA beads solution (final reaction amount: 0.2 mg/well) and the buffer solution were mixed and the mixed solution was left still for 1 hour or more at 4° C. Then, 50 μL of the mixture was added to each well of the plate. In addition, 25 μL of 6 nM [^3H]-Methylspiperone (final concentration: 2 nM) was added to each well. The plate was sealed by putting TopSeal-A 96/384 well (6050185, PerkinElmer, Inc.) on the top of the plate, mixed using stirring deaerator (Well Tornado, FK-62, Sakaki-elc.) and incubated for 120 min at 25° C. After incubation, the radioactivity of [^3H]-Methylspiperone which was bonded to D3 receptor was determined by liquid scintillation counter (1450 Microbeta, PerkinElmer) in each well. Non-specific binding was calculated based on the radioactivity of [^3H]-Methylspiperone in the presence of 10 μM non-labeled Butaclamol. The total binding was calculated using the radioactivity of [^3H]-Methylspiperone in the absence of the compounds of the present invention (vehicle). The Ki values were calculated from dose-response curves.
(§8) Binding activities of the compounds of the present invention were calculated from the following Binding Inhibition Rate (%): Inhibition Rate(%)=[1−(c−a)/(b−a)]×100 • a: Average cpm of non-specific binding • b: Average cpm of total binding • c: Cpm in the presence of each test compound

The target of experiment [2] is human recombinant D2 receptor (Homo sapiens (Human), UniProt P14416). The experiment in a line: Test of binding inhibition for dopamine D2 receptor. As to conditions: Jump-In HEK cell membranes, 1.2 nM [3H]-Methylspiperone, 120 min at 25° C.; read-out: hD2_Ki. How it is done:
Test Example 2: Test of Binding Inhibition for Dopamine D2 Receptor
as §1
Cell membranes: Jump-In HEK cell membranes expressing human recombinant D2 receptor (2 μg/well)
as §2
Radioligand: (final concentration) 1.2 nM [^3H]-Methylspiperone ([^3H—N-methyl-]-Methylspiperone, NET-856, 83.8 Ci/mmol, PerkinElmer)
Non-specific ligand: (final concentration) 10 μM Butaclamol [(+)-Butaclamol Hydrochloride, D033; Sigma]
as §3, §4, §5
[^3H]-Methylspiperone was weighed and the buffer solution was added to make a 3.6 nM solution.
as §6
as §7, with “amount: 2” for “amount: 4”, “SPA bead” for “SPA beads”, “of 3.6” for “of 6”, “concentration: 1.2” for “concentration: 2”, “(6050185, PerkinElmer)” for “(6050185, PerkinElmer, Inc.)”, “to D2” for “to D3”
as §8

Sequence of human recombinant D2 receptor (P14416 whole entry): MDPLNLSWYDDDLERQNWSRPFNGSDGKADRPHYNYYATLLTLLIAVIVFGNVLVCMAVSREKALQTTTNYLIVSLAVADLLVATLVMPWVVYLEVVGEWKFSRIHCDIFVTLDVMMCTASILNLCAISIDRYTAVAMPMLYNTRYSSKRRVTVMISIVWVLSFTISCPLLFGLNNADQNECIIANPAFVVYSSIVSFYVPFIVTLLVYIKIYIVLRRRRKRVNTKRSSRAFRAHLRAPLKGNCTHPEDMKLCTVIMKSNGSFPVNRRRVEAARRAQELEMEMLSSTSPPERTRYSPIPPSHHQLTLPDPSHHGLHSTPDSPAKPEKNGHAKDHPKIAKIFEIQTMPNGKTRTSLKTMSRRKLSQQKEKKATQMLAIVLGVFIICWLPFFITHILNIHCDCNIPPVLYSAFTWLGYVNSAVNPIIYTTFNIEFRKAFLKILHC
Sequence of human recombinant D3 receptor (P35462 whole entry): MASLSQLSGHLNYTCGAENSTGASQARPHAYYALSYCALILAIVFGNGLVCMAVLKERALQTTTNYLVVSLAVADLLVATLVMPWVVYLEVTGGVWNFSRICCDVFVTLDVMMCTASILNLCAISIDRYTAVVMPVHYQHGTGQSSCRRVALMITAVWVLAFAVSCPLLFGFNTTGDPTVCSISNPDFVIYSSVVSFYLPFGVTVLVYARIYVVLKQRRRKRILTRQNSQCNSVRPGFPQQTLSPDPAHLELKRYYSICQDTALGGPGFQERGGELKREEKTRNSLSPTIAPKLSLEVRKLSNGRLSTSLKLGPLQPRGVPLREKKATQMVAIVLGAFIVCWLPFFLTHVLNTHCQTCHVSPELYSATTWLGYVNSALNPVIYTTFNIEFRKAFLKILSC

Consider `CCC(F)(F)c1conc1C1CCN(CC[C@H]2CC[C@H](NC(=O)Cc3nnc(C)s3)CC2)CC1` [Compound I-015], for which the Ki in experiment [1] was 0.13 nM; in experiment [2], 67 nM.
In the same order, the values of `CCC(F)(F)c1conc1C1(F)CCN(CC[C@H]2CC[C@H](NC(=O)Cc3cnc(C)s3)CC2)CC1` [Compound I-020] are 0.37 nM and 310 nM.
Turning to `CN1Cc2c(C(=O)N[C@H]3CC[C@H](CCN4C[C@@H]5C[C@]5(c5cc(C(C)(F)F)on5)C4)CC3)cccc2C1=O` [Compound I-045], the Ki in experiment [1] amounted to 0.13 nM; in experiment [2], 86 nM.
In the same order, the values of `CCc1cc([C@]23C[C@H]2CN(CC[C@H]2CC[C@H](NC(=O)Cc4ncc(C)o4)CC2)C3)no1` [Compound I-054] are 1.2 nM and 780 nM.
Turning to `CCc1cc([C@]23C[C@H]2CN(CC[C@H]2CC[C@H](NC(=O)c4cccnc4C)CC2)C3)no1` [Compound I-047], the Ki in experiment [1] was found to be 1.4 nM; in experiment [2] it was 530 nM.
In the same order, the values of `Cc1ncc(CC(=O)N[C@H]2CC[C@H](CCN3CC4CC4(c4cc(CF)on4)C3)CC2)s1` (stereo partly shown) [Compound I-029] are 2.2 nM and 1100 nM.
`CCc1cc([C@]23C[C@H]2CN(CC[C@H]2CC[C@H](NC(=O)Cc4cnn(C)c4)CC2)C3)no1` [Compound I-056]: the Ki in experiment [1] came out at 0.62 nM; in experiment [2], 1000 nM.
On to `O=C(N[C@H]1CC[C@H](CCN2CCC(n3nccc3-c3ccccc3)CC2)CC1)c1cccc2ncccc12` [Compound I-007], for which the figures for the Ki in experiment [1] and in experiment [2] were 2.7 nM and more than 1800 nM, respectively.
On to `CCc1cc([C@]23C[C@H]2CN(CC[C@H]2CC[C@H](NC(=O)Cc4nnc(C)s4)CC2)C3)no1` [Compound I-059], for which the Ki in experiment [1] turned out to be 0.77 nM; in experiment [2], 550 nM.
In the same order, the values of `Cc1ncc(CC(=O)N[C@H]2CC[C@H](CCN3CCC(c4nscc4C(C)(F)F)CC3)CC2)s1` [Compound I-012] are 1.9 nM and 460 nM.
For the compound `CCc1cc([C@]23C[C@H]2CN(CC[C@H]2CC[C@H](NC(=O)COc4cnc(C)nc4)CC2)C3)no1` [Compound I-049], the Ki in experiment [1] was 0.44 nM; in experiment [2], 830 nM.
`Cn1cc2c(C(=O)N[C@H]3CC[C@](F)(CCN4CCC(c5nocc5C(C)(F)F)CC4)CC3)cccc2n1` [Compound I-026]: the values for the Ki in experiment [1] and in experiment [2] were 0.55 nM and 250 nM, respectively.
In the same order, the values of `Cn1cc2c(C(=O)N[C@H]3CC[C@H](CCN4CC=C(c5nocc5C(C)(F)F)CC4)CC3)cccc2n1` [Compound I-024] are 0.082 nM and 220 nM.
In the same order, the values of `Cn1cc2c(C(=O)N[C@H]3CC[C@H](CCN4CCC(c5nocc5C(C)(F)F)CC4)CC3)cccc2n1` [Compound I-022] are 0.11 nM and 170 nM.
In the case of `CCc1cc([C@]23C[C@H]2CN(CC[C@H]2CC[C@H](NC(=O)/C=C/c4cnc(C)nc4)CC2)C3)no1` [Compound I-051], the Ki turned out to be 0.3 nM in experiment [1] and 380 nM in experiment [2].
In the same order, the values of `O=C(N[C@H]1CC[C@H](CCN2CCC(c3nocc3-c3ccccc3)CC2)CC1)c1cccc2ncccc12` [Compound I-002] are 0.12 nM and 32 nM.
In the same order, the values of `Cn1cc2c(C(=O)N[C@H]3CC[C@H](CCN4CCN(c5nocc5C(C)(F)F)CC4)CC3)cccc2n1` [Compound I-017] are 0.21 nM and 52 nM.
In the same order, the values of `CCc1cc([C@]23C[C@H]2CN(CC[C@H]2CC[C@H](NC(=O)c4ccc(F)c5nn(C)cc45)CC2)C3)no1` [Compound I-050] are 0.42 nM and 200 nM.
For `Cc1ncc(CC(=O)N[C@H]2CC[C@H](CCN3CCC(c4noc(C)c4C(C)(F)F)CC3)CC2)s1` [Compound I-009], the Ki turned out to be 1.9 nM in experiment [1] and 330 nM in experiment [2].
In the same order, the values of `Cc1ncc(CC(=O)N[C@H]2CC[C@H](CCN3CCN(c4nocc4C(C)(F)F)C(C)C3)CC2)s1` (stereo partly shown) [Compound I-019] are 0.15 nM and 68 nM.
On to `Cc1ncccc1C(=O)N[C@H]1CC[C@H](CCN2C[C@@H]3C[C@]3(c3cc(C(C)(F)F)on3)C2)CC1` [Compound I-036], for which the Ki worked out at 0.25 nM in experiment [1] and 190 nM in experiment [2].
In the same order, the values of `Cn1cc(CC(=O)N[C@H]2CC[C@H](CCN3C[C@@H]4C[C@]4(c4cc(C(C)(F)F)on4)C3)CC2)cn1` [Compound I-043] are 0.45 nM and 270 nM.
`O=C(N[C@H]1CC[C@H](CCN2CCC(c3conc3-c3ccccc3)CC2)CC1)c1cccc2ncccc12` [Compound I-005]: the Ki in experiment [1] came out at 1.2 nM; in experiment [2], 860 nM.
In the same order, the values of `Cn1ncc(CC(=O)N[C@H]2CC[C@H](CCN3C[C@@H]4C[C@]4(c4cc(C5CC5)on4)C3)CC2)n1` [II-5] are 0.71 nM and 860 nM.
In the same order, the values of `Cn1cc2c(C(=O)N[C@H]3CC[C@](F)(CCN4C[C@@H]5C[C@]5(c5cc(C(C)(F)F)on5)C4)CC3)cccc2n1` [II-1] are 0.42 nM and more than 2300 nM.
In the same order, the values of `Cc1cnc(CC(=O)N[C@H]2CC[C@H](CCN3C[C@@H]4C[C@]4(c4cc(C(C)(F)F)on4)C3)CC2)o1` [Compound I-040] are 0.56 nM and 350 nM.
Turning to `Cn1cc2c(C(=O)N[C@H]3CC[C@H](CCN4CCC5CC5(c5cc(C(C)(F)F)on5)C4)CC3)cccc2n1` (stereo partly shown) [Compound I-025], the Ki in experiment [1] was 2.4 nM; in experiment [2], 1200 nM.
In the same order, the values of `Cc1ncc(CC(=O)N[C@H]2CC[C@H](CCN3C[C@@H]4C[C@]4(c4cc(C(C)(F)F)on4)C3)CC2)o1` [Compound I-041] are 0.28 nM and 240 nM.
Consider `Cc1ncc(CC(=O)N[C@H]2CC[C@H](CCN3CCC(c4nocc4CC4CC4)CC3)CC2)s1` [Compound I-011], for which the Ki in experiment [1] is 0.63 nM; in experiment [2] it was 380 nM.
`CCc1cc([C@]23C[C@H]2CN(CC[C@H]2CC[C@H](NC(=O)c4cccc5nn(C)cc45)CC2)C3)no1` [Compound I-037]: the Ki stood at 0.7 nM in experiment [1] and 290 nM in experiment [2].
On to `Cc1cc(C23CC2CN(CC[C@H]2CC[C@H](NC(=O)c4cccc5nn(C)cc45)CC2)C3)no1` (stereo partly shown) [Compound I-030], for which the Ki is 2.9 nM in experiment [1] and more than 1800 nM in experiment [2].
In the case of `CC(F)c1cc(C23CC2CN(CC[C@H]2CC[C@H](NC(=O)c4cccc5nn(C)cc45)CC2)C3)no1` (stereo partly shown) [Compound I-033], in experiment [1], the Ki is 0.77 nM.
Same read-out and setting: as for `Cn1cc2c(C(=O)N[C@H]3CC[C@H](CCN4CC5CC5(c5cc(CF)on5)C4)CC3)cccc2n1` (stereo partly shown) [Compound I-028], the figure is 1.9 nM.
